Values quoted from earlier work as cited in patent publication US20080070828A1, “Ace-Inhibitory Whey Hydrolysates” (FRIESLAND BRANDS B.V., priority 2004, published 2008).

How the values were obtained:
ACE = settings: for Literature IC50 / IC50: ACE-inhibitory peptides from BLG; for IC50: read-out: Literature IC50
hypertensive rats = settings: among 9 identified peptide sequences

Row | Literature IC50 (ACE) [µg/mL] | IC50 (ACE) [µM] | IC50 reported in WO 01/85984 (ACE; single hydrolysis step with trypsin or bacterial protease, f142-148 as reference) [µg/mL] | Substance | antihypertensive activity (hypertensive rats)
1 | 404 | 1030 |  | f(81-83): ACE-inhibitory peptide from BLG (VFK; UniProt P02754 97-99, looked up, fragment) | 
2 | 296 | 521 |  | f(142-146): ACE-inhibitory peptide from BLG (ALPMH; UniProt P02754 158-162, looked up, fragment) | 
3 | 620 | 1150 |  | f(146-149): ACE-inhibitory peptide from BLG (HIRL; UniProt P02754 162-165, looked up, fragment) | 
4 |  | 43 | 40 | f(142-148): peptide isolated from a trypsin hydrolysate of bovine BLG (ALPMHIR; UniProt P02754 158-164, looked up, fragment) | 
5 | 616 | 635 |  | f(32-40): ACE-inhibitory peptide from BLG (LDAQSAPLR; UniProt P02754 48-56, looked up, fragment) | 
6 | 95 | 172 |  | f(102-105): ACE-inhibitory peptide from BLG (YLLF; UniProt P02754 118-121, looked up, fragment) | 
7 | 390 | 580 |  | f(9-14): ACE-inhibitory peptide from BLG (GLDIQK; UniProt P02754 25-30, looked up, fragment) | 
8 | 430 | 1060 |  | f(22-25): ACE-inhibitory peptide from BLG (LAMA; UniProt P02754 38-41, looked up, fragment) | 
9 | 1170 | 1680 |  | f(15-20): ACE-inhibitory peptide from BLG (VAGTWY; UniProt P02754 31-36, looked up, fragment) | 
10 | 515 | 788 |  | f(106-111): ACE-inhibitory peptide from BLG (CMENSA; UniProt P02754 122-127, looked up, fragment) | 
11 | 42 | 141 |  | Ile-Pro-Ala [f(78-80), BLG tripeptide] | strongest antihypertensive activity
12 | 807 | 946 |  | f(94-100): ACE-inhibitory peptide from BLG (VLDTDYK; UniProt P02754 110-116, looked up, fragment) | 
